Laboratory results: PMC2904801, “A Metazoan/Plant-like Capping Enzyme and Cap Modified Nucleotides in the Unicellular Eukaryote Trichomonas vaginalis” (PLoS Pathogens, 2010)

Biological target: T1, TvCE (Trichomonas vaginalis, UniProt A2DUZ5)
T1 construct: gene TVAG_187730; full-length (561 residues, 69 kDa without tag), N-terminal His tag from pET200D, E. coli BL21, ~71 kDa monomer
T1 sequence (A2DUZ5 1-561): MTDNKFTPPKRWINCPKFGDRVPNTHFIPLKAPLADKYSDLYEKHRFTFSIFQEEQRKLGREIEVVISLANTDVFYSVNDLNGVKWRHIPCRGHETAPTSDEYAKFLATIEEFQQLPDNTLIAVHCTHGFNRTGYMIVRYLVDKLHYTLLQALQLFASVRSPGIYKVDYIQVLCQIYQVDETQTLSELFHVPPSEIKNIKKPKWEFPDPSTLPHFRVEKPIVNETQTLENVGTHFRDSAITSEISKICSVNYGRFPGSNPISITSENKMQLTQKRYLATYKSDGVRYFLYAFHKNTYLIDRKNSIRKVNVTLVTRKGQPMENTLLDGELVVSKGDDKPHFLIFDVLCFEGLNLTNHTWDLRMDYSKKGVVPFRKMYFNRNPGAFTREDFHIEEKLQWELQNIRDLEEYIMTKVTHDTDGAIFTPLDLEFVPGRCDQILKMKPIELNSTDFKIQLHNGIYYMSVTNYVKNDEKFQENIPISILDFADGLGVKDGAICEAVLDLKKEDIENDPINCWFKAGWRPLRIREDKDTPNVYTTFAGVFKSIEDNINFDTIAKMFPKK
Test: SDS-PAGE autoradiography of covalent enzyme-GMP intermediate; cold NTP competition
Type: biochemical
Settings: guanylyltransferase domain; labelled compound; covalent enzyme-(lysyl-N)-GMP; 50 mM Tris-acetate pH 7.0, 5 mM DTT, 2.5 mM MgCl2, 37 °C

**Q.** `Nc1nc2c(ncn2[C@@H]2O[C@H](COP(=O)(O)OP(=O)(O)OP(=O)(O)O)[C@@H](O)[C@H]2O)c(=O)[nH]1` [[α-^32P]GTP] was tested. Which “SDS-PAGE autoradiography of covalent enzyme-GMP intermediate; cold NTP competiti” value did it give?
**A.** Its value is “displayed an absolute specificity for a GTP substrate”.
